According to patent US20250339399A1, “SUPRAMOLECULAR SELF-ASSEMBLY SYSTEM” (Beijing Creatron Institute of Pharmaceutical Research Co., …, priority 2022, published 2025):

How the values were obtained:
[1] = Binary (carrier), ternary and quaternary supramolecular self-assembly systems of polymer, carrier building block and target: guest concentration over incubation time (Examples 1-56); type: physicochemical; settings: 6 h
Method in brief: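 Targets were incubated at 37 °C in pH 2.0–7.4 buffers with 0.5% polymer alone or with carrier building blocks, after 0.5 h sonication for ternary systems, and shaken at 200 rpm. Samples at 0.5–6 h were centrifuged and diluted ≥10-fold, and dissolved target was quantified by HPLC; surfactant was added if needed.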

[2] = Guest molecule concentration after incubation in initial medium without polymer (Comparative Example 1); type: physicochemical; settings: 37° C.
Method in brief: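 Dissolved guest content measured by HPLC of centrifuged supernatants (37° C., 13000 rpm, 5 min) sampled at 0.5 h, 3 h and 6 h. Incubation was polymer-free at 37° C.±0.5° C. in buffers of pH 2.0-7.4; nominal loading was set by maximum clinical dose.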

[3] = cited from earlier work
[4] = Binary supramolecular self-assembly systems of polymer and target: guest concentration over incubation time (Comparative Example 2); type: physicochemical; settings: for Concentration of guest molecule in solution / Times that of the initial medium: 6 h
Method: Experiments were conducted according to the steps in Comparative Example 1, and quantitative analysis was carried out using the analytical method for each target to investigate the regulation ability […] stacking.

[5] = binary system with 0.5% polymer 101, incubation 0.5 h
[6] = binary system with 0.5% polymer 101, incubation 3 h
[7] = binary system with 0.5% polymer 101, incubation 6 h
[8] = binary system with 0.5% polymer 102, incubation 0.5 h
[9] = binary system with 0.5% polymer 102, incubation 3 h
[10] = binary system with 0.5% polymer 102, incubation 6 h
[11] = binary system with 0.5% polymer 103, incubation 0.5 h
[12] = binary system with 0.5% polymer 103, incubation 3 h
[13] = binary system with 0.5% polymer 103, incubation 6 h
[14] = binary system with 0.5% polymer 104, incubation 0.5 h
[15] = binary system with 0.5% polymer 104, incubation 3 h
[16] = binary system with 0.5% polymer 104, incubation 6 h
[17] = binary system with 0.5% polymer 106, incubation 0.5 h
[18] = binary system with 0.5% polymer 106, incubation 3 h
[19] = binary system with 0.5% polymer 106, incubation 6 h
[20] = binary system with 0.5% polymer 107, incubation 0.5 h
[21] = binary system with 0.5% polymer 107, incubation 3 h
[22] = binary system with 0.5% polymer 107, incubation 6 h
[23] = system built by polymers 102H and 103E3 with carrier 302
[24] = ternary: 102H (0.25% where stated) + 301, carrier % not stated

Row | Concentration of guest molecule measured after different incubated time ([2]; 0.5 h, pH 6.8 phosphate buffer) [µg/mL] | Concentration of guest molecule measured after different incubated time ([2]; 3 h, pH 6.8 phosphate buffer) [µg/mL] | Concentration of guest molecule measured after different incubated time ([2]; 6 h, pH 6.8 phosphate buffer) [µg/mL] | Concentration of the target in the solution measured after different incubation time [4, 5] [µg/mL] | Concentration of the target in the solution measured after different incubation time [4, 6] [µg/mL] | Concentration of the target in the solution measured after different incubation time [4, 7] [µg/mL] | Concentration of the target in the solution measured after different incubation time [4, 8] [µg/mL] | Concentration of the target in the solution measured after different incubation time [4, 9] [µg/mL] | Concentration of the target in the solution measured after different incubation time [4, 10] [µg/mL] | Concentration of the target in the solution measured after different incubation time [4, 11] [µg/mL] | Concentration of the target in the solution measured after different incubation time [4, 12] [µg/mL] | Concentration of the target in the solution measured after different incubation time [4, 13] [µg/mL] | Concentration of the target in the solution measured after different incubation time [4, 14] [µg/mL] | Concentration of the target in the solution measured after different incubation time [4, 17] [µg/mL] | Concentration of the target in the solution measured after different incubation time [4, 18] [µg/mL] | Concentration of the target in the solution measured after different incubation time [4, 19] [µg/mL] | Concentration of the target in the solution measured after different incubation time [4, 20] [µg/mL] | Concentration of the target in the solution measured after different incubation time [4, 21] [µg/mL] | Concentration of the target in the solution measured after different incubation time [4, 22] [µg/mL] | SMILES | LogD7.4 or Log P [3] | further results
1 | 7.6 | 1.7 | 0.9 | 45.5 | 29.3 | 28.6 | 76.8 | 26.2 | 27.8 | 12.9 | 11.3 | 7.6 | 37.8 | 7.3 | 7.9 | 6.5 | 68.2 | 9.7 | 6.1 | COc1cc2nccc(Oc3ccc(NC(=O)NC4CC4)c(Cl)c3)c2cc1C(N)=O [Lenvatinib] | 2.52 | Concentration of guest molecule in solution ([1]; quaternary: 0.25% 205 (102H+104) + 310): 116.4 µg/mL; Concentration of guest molecule in solution ([1]; quaternary: 0.25% 205 (102H+104) + 313, carrier % not stated): 112.1 µg/mL; Concentration of the target in the solution measured after different incubation time [4, 15]: 42.7 µg/mL; Concentration of the target in the solution measured after different incubation time [4, 16]: 67.5 µg/mL; Concentration of guest molecule in solution ([4]; binary: 102H, % not stated at the place): 59.5 µg/mL; Concentration of guest molecule in solution ([4]; binary: 104, % not stated at the place): 47.6 µg/mL
2 | 35.0 | 33.8 | 28.0 | 56.0 | 75.2 | 46.2 | 56.5 | 71.5 | 89.5 | 34.3 | 28.5 | 27.7 | – | 41.5 | 35.6 | 32.5 | 46.5 | 43.5 | 39.3 | CCCNS(=O)(=O)Nc1ncnc(OCCOc2ncc(Br)cn2)c1-c1ccc(Br)cc1 [Macitentan] | – | Concentration of guest molecule in solution ([1]; Comparative Example 4, quaternary: 0.25% 201 + 0.25% 305): 59.5 µg/mL; Concentration of guest molecule in solution ([1]; Comparative Example 4, quaternary: 0.25% 201 + 0.25% 309): 29.2 µg/mL; Concentration of guest molecule in solution ([1]; quaternary: 0.25% 201 (102H+101) + 0.25% 307): 362.5 µg/mL; Concentration of guest molecule in solution ([1]; quaternary: 0.25% 201 (102H+101) + 0.25% 308): 516.0 µg/mL; Concentration of guest molecule in solution ([1]; quaternary: 0.25% 201 (102H+101) + 0.25% 313): 474.6 µg/mL; Concentration of guest molecule in solution ([1]; quaternary: 0.25% 201 (102H+101) + 0.25% 320): 562.4 µg/mL; Concentration of guest molecule in solution ([1]; quaternary: 0.25% 201 (102H+101) + 0.25% 321): 596.3 µg/mL; LogP [3]: LogP 3.55; Concentration of the target in the solution measured after different incubation time ([4]; binary system with 0.5% polymer 110, incubation 0.5 h): 28.7 µg/mL; Concentration of the target in the solution measured after different incubation time ([4]; binary system with 0.5% polymer 110, incubation 3 h): 34.7 µg/mL; Concentration of the target in the solution measured after different incubation time ([4]; binary system with 0.5% polymer 110, incubation 6 h): 33.5 µg/mL; Concentration of guest molecule in solution ([4]; binary: 0.5% 101): 46.2 µg/mL; Times that of the initial medium ([4]; binary: 0.5% 101): 4.3 times; Concentration of guest molecule in solution ([4]; binary: 0.5% 102H): 89.5 µg/mL; Times that of the initial medium ([4]; binary: 0.5% 102H): 10.4 times
3 | – | – | – | 117.0 | 145.8 | 149.9 | 96.7 | 188.9 | 189.9 | 125.2 | 159.3 | 181.5 | 77.5 | 121.2 | 81.8 | 50.0 | 107.2 | 62.3 | 52.3 | Cc1cn(-c2cc(NC(=O)c3ccc(C)c(Nc4nccc(-c5cccnc5)n4)c3)cc(C(F)(F)F)c2)cn1 [Nilotinib] | 5.35 | Concentration of guest molecule in solution [1, 23]: 391.1 µg/mL; Encapsulation rate for the guest molecule [1, 23]: 97.8%; Concentration of guest molecule in solution [1, 24]: 227.2 µg/mL; Times that of the initial medium [1, 24]: 10 times; Concentration of guest molecule in solution ([1]; ternary: 102H + 310, carrier % not stated): 317.6 µg/mL; Concentration of guest molecule in solution ([1]; ternary: 102H + 313, carrier % not given): 365.2 µg/mL; Concentration of guest molecule in solution ([1]; ternary: 102M + 310): 344.0 µg/mL; Concentration of guest molecule in solution ([1]; ternary: 102M + 313): 328.9 µg/mL; Concentration of guest molecule measured after different incubated time ([2]; 0.5 h, 0.05% SDS in pH 6.8 phosphate buffer): 35.2 µg/mL; Concentration of guest molecule measured after different incubated time ([2]; 3 h, 0.05% SDS in pH 6.8 phosphate buffer): 24.2 µg/mL; Concentration of guest molecule measured after different incubated time ([2]; 6 h, 0.05% SDS in pH 6.8 phosphate buffer): 17.9 µg/mL; Dissociation constant ([3]; basic drug): 5.92; Log D6.8 ([3]; pH 6.8): 5.27; Concentration of the target in the solution measured after different incubation time [4, 15]: 84.9 µg/mL; Concentration of the target in the solution measured after different incubation time [4, 16]: 61.4 µg/mL; Times that of the initial medium ([4]; binary: 0.5% 102H): about 8.5 times; Times that of the initial medium ([4]; binary: 0.5% 104): ~2.7 times
